# How the values were obtained:
# Streptococcus agalactiae [1] = assay: Antimicrobial activity against erythromycin-susceptible Streptococcus agalactiae clinical isolates assessed as resistant isolates by broth microdilution method; type: functional
# [2] = Antimicrobial activity against erythromycin-susceptible Streptococcus Group C clinical isolates assessed as resistant isolates by broth microdilution method; type: functional, Streptococcus sp. 'group C'
# Streptococcus pyogenes [3] = assay: Antimicrobial activity against erythromycin-susceptible Streptococcus pyogenes clinical isolates by broth microdilution method; type: functional
# Streptococcus agalactiae [4] = assay: Antimicrobial activity against erythromycin-nonsusceptible Streptococcus agalactiae clinical isolates assessed as percent susceptible isolates by broth microdilution method; type: functional
# Streptococcus pyogenes [5] = assay: Antimicrobial activity against Streptococcus pyogenes clinical isolates assessed as resistant isolates by broth microdilution method; type: functional
# [6] = Antimicrobial activity against erythromycin-susceptible Streptococcus Group C clinical isolates assessed as percent susceptible isolates by broth microdilution method; type: functional, Streptococcus sp. 'group C'
# Streptococcus [7] = assay: Antimicrobial activity against Streptococcus Group F clinical isolates by broth microdilution method; type: functional
# Streptococcus agalactiae [8] = assay: Antimicrobial activity against Streptococcus agalactiae clinical isolates by broth microdilution method; type: functional
# Enterococcus faecium [9] = assay: Antimicrobial activity against vancomycin-nonsusceptible Enterococcus faecium clinical isolates assessed as percent susceptible isolates by broth microdilution method; type: functional
# [10] = Antimicrobial activity against erythromycin-susceptible Streptococcus Group G clinical isolates by broth microdilution method; type: functional; settings: Streptococcus sp. 'group G'
# Enterococcus faecium [11] = assay: Antimicrobial activity against Enterococcus faecium expressing VanB gene clinical isolates assessed as percent susceptible isolates by broth microdilution method; type: functional
# [12] = Antimicrobial activity against erythromycin-nonsusceptible Streptococcus Group G clinical isolates by broth microdilution method; type: functional; settings: Streptococcus sp. 'group G'
# Enterococcus faecalis [13] = assay: Antimicrobial activity against Enterococcus faecalis expressing VanB gene clinical isolates assessed as percent susceptible isolates by broth microdilution method; type: functional
# Streptococcus agalactiae [14] = assay: Antimicrobial activity against erythromycin-nonsusceptible Streptococcus agalactiae clinical isolates by broth microdilution method; type: functional
# Enterococcus faecium [15] = assay: Antimicrobial activity against Enterococcus faecium clinical isolates assessed as percent susceptible isolates by broth microdilution method; type: functional
# [16] = Antimicrobial activity against erythromycin-susceptible Streptococcus Group C clinical isolates by broth microdilution method; type: functional; settings: Streptococcus sp. 'group C'
# Streptococcus agalactiae [17] = assay: Antimicrobial activity against erythromycin-susceptible Streptococcus agalactiae clinical isolates by broth microdilution method; type: functional
# Streptococcus pyogenes [18] = assay: Antimicrobial activity against erythromycin-susceptible Streptococcus pyogenes clinical isolates assessed as resistant isolates by broth microdilution method; type: functional
# Streptococcus pneumoniae [19] = assay: Antimicrobial activity against Streptococcus pneumoniae clinical isolates assessed as percent susceptible isolates by broth microdilution method; type: functional
# Streptococcus pneumoniae [20] = assay: Antimicrobial activity against penicillin-susceptible Streptococcus pneumoniae clinical isolates assessed as percent susceptible isolates by broth microdilution method; type: functional
# Enterococcus faecalis [21] = assay: Antimicrobial activity against Enterococcus faecalis expressing VanA gene clinical isolates assessed as percent susceptible isolates by broth microdilution method; type: functional
# Streptococcus agalactiae [22] = assay: Antimicrobial activity against erythromycin-susceptible Streptococcus agalactiae clinical isolates assessed as percent susceptible isolates by broth microdilution method; type: functional
# Streptococcus pyogenes [23] = assay: Antimicrobial activity against erythromycin-nonsusceptible Streptococcus pyogenes clinical isolates assessed as percent susceptible isolates by broth microdilution method; type: functional
# [24] = Antimicrobial activity against erythromycin-nonsusceptible Streptococcus Group C clinical isolates by broth microdilution method; type: functional; settings: Streptococcus sp. 'group C'
# [25] = Antimicrobial activity against Streptococcus Group C clinical isolates by broth microdilution method; type: functional; settings: Streptococcus sp. 'group C'
# Streptococcus agalactiae [26] = assay: Antimicrobial activity against Streptococcus agalactiae clinical isolates assessed as percent susceptible isolates by broth microdilution method; type: functional
# Streptococcus pneumoniae [27] = assay: Antimicrobial activity against penicillin-resistant Streptococcus pneumoniae clinical isolates assessed as percent susceptible isolates by broth microdilution method; type: functional
# [28] = Antimicrobial activity against erythromycin-susceptible Streptococcus Group G clinical isolates assessed as percent susceptible isolates by broth microdilution method; type: functional, Streptococcus sp. 'group G'
# Streptococcus agalactiae [29] = assay: Antimicrobial activity against erythromycin-nonsusceptible Streptococcus agalactiae clinical isolates assessed as resistant isolates by broth microdilution method; type: functional
# Streptococcus pneumoniae [30] = assay: Antimicrobial activity against penicillin-intermediate Streptococcus pneumoniae clinical isolates assessed as percent susceptible isolates by broth microdilution method; type: functional
# Streptococcus pyogenes [31] = assay: Antimicrobial activity against Streptococcus pyogenes clinical isolates assessed as percent susceptible isolates by broth microdilution method; type: functional
# Streptococcus [32] = assay: Antimicrobial activity against erythromycin-nonsusceptible Streptococcus Group F clinical isolates by broth microdilution method; type: functional
# Enterococcus faecium [33] = assay: Antimicrobial activity against vancomycin-susceptible Enterococcus faecium clinical isolates by broth microdilution method; type: functional
# Streptococcus [34] = assay: Antimicrobial activity against erythromycin-susceptible Streptococcus Group F clinical isolates by broth microdilution method; type: functional
# Streptococcus pyogenes [35] = assay: Antimicrobial activity against erythromycin-susceptible Streptococcus pyogenes clinical isolates assessed as percent susceptible isolates by broth microdilution method; type: functional
# Streptococcus pyogenes [36] = assay: Antimicrobial activity against Streptococcus pyogenes clinical isolates by broth microdilution method; type: functional
# Streptococcus agalactiae [37] = assay: Antimicrobial activity against Streptococcus agalactiae clinical isolates assessed as resistant isolates by broth microdilution method; type: functional
# Streptococcus pyogenes [38] = assay: Antimicrobial activity against erythromycin-nonsusceptible Streptococcus pyogenes clinical isolates by broth microdilution method; type: functional
# Streptococcus pneumoniae [39] = assay: Antimicrobial activity against Streptococcus pneumoniae clinical isolates by broth microdilution method; type: functional
# Streptococcus pneumoniae [40] = assay: Antimicrobial activity against penicillin-intermediate Streptococcus pneumoniae clinical isolates by broth microdilution method; type: functional
# Streptococcus pneumoniae [41] = assay: Antimicrobial activity against penicillin-resistant Streptococcus pneumoniae clinical isolates by broth microdilution method; type: functional
# Streptococcus pneumoniae [42] = assay: Antimicrobial activity against penicillin-susceptible Streptococcus pneumoniae clinical isolates by broth microdilution method; type: functional
# Streptococcus pyogenes [43] = assay: Antimicrobial activity against erythromycin-nonsusceptible Streptococcus pyogenes clinical isolates assessed as resistant isolates by broth microdilution method; type: functional
# [44] = Antimicrobial activity against Streptococcus Group G clinical isolates by broth microdilution method; type: functional; settings: Streptococcus sp. 'group G'
# Staphylococcus aureus [45] = assay: Antimicrobial activity against oxacillin-susceptible Staphylococcus aureus clinical isolates by broth microdilution method; type: functional
# [46] = test system: Staphylococcus epidermidis; assay: Antimicrobial activity against oxacillin-resistant Staphylococcus epidermidis clinical isolates assessed as resistant isolates by broth microdilution method; type: functional
# Streptococcus [47] = assay: Antimicrobial activity against erythromycin-susceptible Streptococcus Group F clinical isolates assessed as percent susceptible isolates by broth microdilution method; type: functional
# Staphylococcus aureus [48] = assay: Antimicrobial activity against oxacillin-resistant Staphylococcus aureus clinical isolates assessed as resistant isolates by broth microdilution method; type: functional
# [49] = test system: Staphylococcus haemolyticus; assay: Antimicrobial activity against Staphylococcus haemolyticus clinical isolates assessed as resistant isolates by broth microdilution method; type: functional
# [50] = test system: Staphylococcus epidermidis; assay: Antimicrobial activity against oxacillin-susceptible Staphylococcus epidermidis clinical isolates assessed as resistant isolates by broth microdilution method; type: functional
# [51] = Antimicrobial activity against Streptococcus Group C clinical isolates assessed as percent susceptible isolates by broth microdilution method; type: functional, Streptococcus sp. 'group C'
# [52] = test system: Staphylococcus epidermidis; assay: Antimicrobial activity against Staphylococcus epidermidis clinical isolates assessed as percent susceptible isolates by broth microdilution method; type: functional
# [53] = test system: Staphylococcus epidermidis; assay: Antimicrobial activity against oxacillin-susceptible Staphylococcus epidermidis clinical isolates by broth microdilution method; type: functional
# [54] = test system: Staphylococcus epidermidis; assay: Antimicrobial activity against Staphylococcus epidermidis clinical isolates assessed as resistant isolates by broth microdilution method; type: functional
# [55] = Antimicrobial activity against Streptococcus Group G clinical isolates assessed as percent susceptible isolates by broth microdilution method; type: functional, Streptococcus sp. 'group G'
# [56] = test system: Staphylococcus haemolyticus; assay: Antimicrobial activity against Staphylococcus haemolyticus clinical isolates by broth microdilution method; type: functional
# [57] = Antimicrobial activity against erythromycin-nonsusceptible Streptococcus Group C clinical isolates assessed as percent susceptible isolates by broth microdilution method; type: functional, Streptococcus sp. 'group C'
structure (smiles),measurement,setting,value
C[C@H]1COc2c(N3CCN(C)CC3)c(F)cc3c(=O)c(C(=O)O)cn1c23.C[C@H]1COc2c(N3CCN(C)CC3)c(F)cc3c(=O)c(C(=O)O)cn1c23.O [LEVOFLOXACIN],Activity,Streptococcus agalactiae [1],1.4%
same,Activity,[2],0%
same,MIC90,Streptococcus pyogenes [3],0.5 µg/mL
same,Activity,Streptococcus agalactiae [4],95.9%
same,Activity,Streptococcus pyogenes [5],0.1%
same,Activity,[6],100%
same,MIC90,Streptococcus [7],0.5 µg/mL
same,MIC90,Streptococcus agalactiae [8],1 µg/mL
same,Activity,Enterococcus faecium [9],0.2%
same,MIC90,[10],0.5 µg/mL
same,Activity,Enterococcus faecium [11],0%
same,MIC90,[12],0.5 µg/mL
same,Activity,Enterococcus faecalis [13],0%
same,MIC90,Streptococcus agalactiae [14],1 µg/mL
same,Activity,Enterococcus faecium [15],12.2%
same,MIC90,[16],0.5 µg/mL
same,MIC90,Streptococcus agalactiae [17],1 µg/mL
same,Activity,Streptococcus pyogenes [18],0%
same,Activity,Streptococcus pneumoniae [19],99.1%
same,Activity,Streptococcus pneumoniae [20],99.5%
same,Activity,Enterococcus faecalis [21],0%
same,Activity,Streptococcus agalactiae [22],98.6%
same,Activity,Streptococcus pyogenes [23],99.2%
same,MIC90,[24],0.5 µg/mL
same,MIC90,[25],0.5 µg/mL
same,Activity,Streptococcus agalactiae [26],97.8%
same,Activity,Streptococcus pneumoniae [27],99.3%
same,Activity,[28],100%
same,Activity,Streptococcus agalactiae [29],4.1%
same,Activity,Streptococcus pneumoniae [30],97.7%
same,Activity,Streptococcus pyogenes [31],99.9%
same,MIC90,Streptococcus [32],0.5 µg/mL
same,MIC90,Enterococcus faecium [33],> 16 µg/mL
same,MIC90,Streptococcus [34],0.5 µg/mL
same,Activity,Streptococcus pyogenes [35],100%
same,MIC90,Streptococcus pyogenes [36],0.5 µg/mL
same,Activity,Streptococcus agalactiae [37],2.2%
same,MIC90,Streptococcus pyogenes [38],1 µg/mL
same,MIC90,Streptococcus pneumoniae [39],1 µg/mL
same,MIC90,Streptococcus pneumoniae [40],1 µg/mL
same,MIC90,Streptococcus pneumoniae [41],1 µg/mL
same,MIC90,Streptococcus pneumoniae [42],1 µg/mL
same,Activity,Streptococcus pyogenes [43],0.8%
same,MIC90,[44],0.5 µg/mL
CN[C@H](CC(C)C)C(=O)N[C@H]1C(=O)N[C@@H](CC(N)=O)C(=O)N[C@H]2C(=O)N[C@H]3C(=O)N[C@H](C(=O)N[C@H](C(=O)O)c4cc(O)cc(O)c4-c4cc3ccc4O)[C@H](O)c3ccc(c(Cl)c3)Oc3cc2cc(c3O[C@@H]2O[C@H](CO)[C@@H](O)[C@H](O)[C@H]2O[C@H]2C[C@](C)(N)[C@H](O)[C@H](C)O2)Oc2ccc(cc2Cl)[C@H]1O [VANCOMYCIN],MIC90,Staphylococcus aureus [45],1 µg/mL
same,Percent of isolates resistant,[46],0%
same,Activity,Streptococcus agalactiae [1],0%
same,MIC90,Streptococcus pyogenes [3],0.25 µg/mL
same,Activity,Streptococcus agalactiae [4],100%
same,Activity,[6],100%
same,MIC90,Streptococcus [7],0.5 µg/mL
same,MIC90,Streptococcus agalactiae [8],0.5 µg/mL
same,Activity,Streptococcus [47],100%
same,Activity,Enterococcus faecium [9],0%
same,MIC90,[10],0.5 µg/mL
same,Activity,Enterococcus faecium [11],0%
same,Percent resistant isolates,Staphylococcus aureus [48],0%
same,MIC90,[12],0.5 µg/mL
same,Activity,Enterococcus faecalis [13],0%
same,MIC90,Streptococcus agalactiae [14],0.5 µg/mL
same,Resistant isolates,[49],0%
same,Activity,Enterococcus faecium [15],42.7%
same,MIC90,[16],0.5 µg/mL
same,MIC90,Streptococcus agalactiae [17],0.5 µg/mL
same,Percent of isolates resistant,[50],0%
same,Activity,Streptococcus pneumoniae [19],100%
same,Activity,Streptococcus pneumoniae [20],100%
same,Activity,[51],100%
same,Activity,Enterococcus faecalis [21],0%
same,Activity,Streptococcus agalactiae [22],100%
same,Activity,Streptococcus pyogenes [23],100%
same,MIC90,[24],0.5 µg/mL
same,Activity,[52],100%
same,MIC90,[53],2 µg/mL
same,MIC90,[25],0.5 µg/mL
same,Activity,Streptococcus agalactiae [26],100%
same,Activity,Streptococcus pneumoniae [27],100%
same,Activity,[28],100%
same,Activity,Streptococcus agalactiae [29],0%
same,Activity,Streptococcus pneumoniae [30],100%
same,Activity,Streptococcus pyogenes [31],100%
same,Percent of isolates resistant,[54],0%
same,Activity,[55],100%
same,MIC90,Streptococcus [32],0.5 µg/mL
same,MIC90,Enterococcus faecium [33],1 µg/mL
same,MIC90,Streptococcus [34],0.5 µg/mL
same,Activity,Streptococcus pyogenes [35],100%
same,MIC90,Streptococcus pyogenes [36],0.25 µg/mL
same,Activity,Streptococcus agalactiae [37],0%
same,MIC90,[56],2 µg/mL
same,MIC90,Streptococcus pyogenes [38],0.25 µg/mL
same,MIC90,Streptococcus pneumoniae [39],0.25 µg/mL
same,MIC90,Streptococcus pneumoniae [40],0.25 µg/mL
same,MIC90,Streptococcus pneumoniae [41],0.5 µg/mL
same,MIC90,Streptococcus pneumoniae [42],0.25 µg/mL
same,MIC90,[44],0.5 µg/mL
same,Activity,[57],100%
